“And” between values parts separate entries of the source, which are not always exact repeats. Identical values can stand only once. “Also recorded” adds a separate entry of the source.
What was measured:
rat papillary muscle = assay: Isometric tension (electrically stimulated twitches) in papillary muscle; assay type: cell-based; details: for maximum alterations to the papillary muscle twitches: 10 to 100 μM, not significant; for amplitude of the papillary muscle twitches: 100 μM, 1 Hz stimulation
Protocol: (§1) Once the experiments have been carried out, the findings were subject to statistical analyses being expressed in average ±SEM as a percentage of the control value, and graphs were drawn up using the Sigma Plot 5.0 program to represent the data obtained. For the statistical analysis of the effects on the different muscle tissues, the difference was assessed among the concentrations of the same derivative, using the “t” Student test. In order to ascertain the difference among the derivatives, the one-way ANOVA test was used. The differences were considered as significant for p<0.05. The Cl50 was expressed as an average ±SEM of the values obtained for each experiment through non-linear regression based on the y=yo+ae^−bx equation.
(§2) After anesthesia with ethyl ether, male Wistar rats weighing between 240-280 grams were sacrificed through cervical dislocation. The heart was removed rapidly and the papillary muscle and the ventricular bundles were dissected in Tyrode's solution, whose composition is given in Table 2 below, at room temperature. The muscles were placed in vertical chambers with a capacity of 10 mL and fixed at their extremities: the lower portion to a hook located in the stimulation electrode fixation rod and the upper portion connected to a power transducer (Grass FT03) for recording the muscle twitches.
(§3) The muscles were stimulated electrically with supra-maximum voltage (50-60 V) through a stimulator (Grass S88) at a frequency of 1.0 Hz. The signals captured by the transducer were amplified (Cyberamp 380, Axon Instruments) and the isometric tension was digitized (Digidata 1322A, Axon Instruments) and stored on a computer. The screening and analysis of the experiment was handled through the Axoscope 8.0 program (Axon Instruments) (Sudo & cols., 2001). The chamber solution was bubbled continuously with a carbogenic mixture (95% O2/5% CO2) and kept at a temperature of 37° C.
(§4) After the stabilization of the muscle twitches (approximately 30 min) the records were carried out in the absence (control) and presence of rising concentrations (10 to 100 μM) of the different L294 analogs, diluted in DMSO. The records were carried out in pairs (two papillary and two ventricle) thus allowing the control experiments to be carried out in one of the pairs, meaning with rising quantities of DMSO equivalent to those used to dilute the substances. The reversibility of the effect of the substances was investigated at the end of each experiment, noting the recovery of the muscle twitches after bathing the preparation with Tyrode's solution.

[1] = system: left ventricle bundles of a rat heart; assay: Isometric tension in ventricular bundles; assay type: cell-based; details: for muscular response in ventricular bundles: concentration not given, alterations not greater than 10%
Protocol: as §1, §2, §3, §4

[2] = system: rat aorta rings with the vascular endothelium preserved; assay: Phenylephrine-induced contracture in aorta rings with preserved endothelium; assay type: cell-based; details: phenylephrine 10 μM; for IC50: Rattus norvegicus, with endothelium, six experiments, read-out: CI50 (μM) Average ± SEM
Protocol: as §1
(§5) Male Wistar rats weighing between 240-280 grams were sacrificed through dislocation of the cervical column under anesthesia using ethyl ether. The aorta artery was removed and transferred to a Petri dish containing modified Tyrode's solution whose composition is described in Table 3 below, where the vessel was cleaned and the connective tissue was removed. According to the scheduled Experiment Protocol, the vascular endothelium was removed mechanically with the assistance of a polyethylene rod. The artery was divided into rings with a width of 2-3 mm. Two hooks were placed in the wall of the vessel in order to record the tension generated by the muscle in a transversal direction. To do so, one of the hooks was tied to a fixed point in the chamber and the other to a power transducer (FT 03) for recording the isometric tension. The tension generated by the muscle was transformed into a digitized electric signal (Digidata 1322A) and stored in a computer for subsequent analysis using the Axoscope 8.0 program (Axon Instruments, Inc). The chamber was filled with Krebs solution, oxygenated and kept at a temperature of 37° C.
(§6) After stabilizing the preparation, approximately 120 minutes, the Experiment Protocol began. Initially, in order to identify the presence or absence of the vascular endothelium, the preparation was exposed to phenylephrine (10 μM) and when the contracture in response to this substance was stabilized, acetylcholine (10 μM) was added to the nutrient solution. Relaxation of over 80% in response to the acetylcholine indicated the full integrity of the endothelium and relaxation of less than 10% indicated the absence of endothelium. The tissues in which the relaxation intensity fell between >10% and <80% were discarded. In order to investigate the vasodilator effect of the different L294 analogs, they were added to the experiment chambers in rising concentration after the contracture stabilization of the vessel induced by phenylephrine. The tension registered after treatment with each of the L294 analog concentrations was normalized as a function of the amplitude of the contracture triggered by phenylephrine. For the purpose of comparing the potency of some of the L294 analogs, the Cl50 was determined for each experiment using the y=yo+ae^−bx equation and their mean was used for the statistical analysis.

[3] = system: aorta rings with no preserved endothelium; assay: Phenylephrine-induced contracture in aorta rings without endothelium; assay type: cell-based, rat; details: phenylephrine 10 μM; for IC50: Rattus norvegicus, without endothelium, six experiments, read-out: CI50 (MM) Average ± SEM; for vasodilatory / relaxing effect on phenylephrine contracture, without endothelium: result in words
Protocol: as §1, §5, §6
The importance of the presence of vascular endothelium in the vasodilatory action of the L294 analogs was assessed in experiments in which these cells were removed mechanically. […] When the findings of the experiments without the endothelium were analyzed as a whole, the absence of the L790 effect was confirmed. […] The maximum relaxation caused by the L787 and L789 analogs was less than 50% of the control, and the other analogs caused relaxation in the following decreasing order of efficacy: L785>L788>L786. Once again, attention is drawn to the marked efficiency of the L785 and L788 analogs.

[4] = system: extensor digitorium longus (EDL) muscle; assay: Electrically induced twitch amplitude in fast-fiber skeletal muscle (EDL); assay type: cell-based, mice; details: for EDL twitch amplitude 30 min-Washing (% of the control): 30 min after washing
Protocol: (§7) Male mice weighing 22-28 g were sacrificed through cervical dislocation and the extensor digitorium longus (EDL) and soleus (SOL) muscles were dissected in a Ringer-Krebs solution, whose composition is given in Table 9, at room temperature. The muscles were placed in vertical chambers with a capacity of 10 ml, and were fixed by their ends to the stimulation electrode fixation rod and a power transducer (Grass FT03) for registering muscle twitches. The chamber solution was bubbled continuously with a carbogenic mixture (95% O2/5% CO2) and kept at a temperature of 37° C. The muscles were stimulated electrically through a stimulator (Grass S88) at a frequency of 0.2 Hz, at 37° C. After the stabilization of the muscle twitches (±30 minutes) a control record was taken in the absence of the drug, and subsequently rising concentrations (from 10 μM to 200 μM) of the L294 derivatives were added every ten minutes, diluted in DMSO. […] The signals recorded by the transducer were amplified (Cyberamp) and the isometric tension was digitized (Digidata 1322A) and stored on a computer. The screening and analysis of the experiment was handled through the use of the Axoscope 8.0 program. (Zapata-Sudo, 2003).
(§8) A measurement of the electrically-induced twitch amplitude was selected to assist the effects of the L294 analogs on the skeletal muscle inotropism. One muscle consisting of fast fibers (extensor digitorium longus-EDL) and the other of slow fibers (soleus-SOL) taken from mice were selected for this purpose. Differences in the timing of the twitches between the fast and slow muscles are shown at the faster recording speed. […] Washing the preparation with Krebs solution caused a partial reversion of the effects induced by the L786.

soleus (SOL) muscle = assay: Electrically induced twitch amplitude in slow-fiber skeletal muscle (SOL); assay type: cell-based, mice; details: for SOL twitch amplitude 30 min-Washing (% of the control): 30 min after washing
Protocol: as §7, §8

[5] = system: corpus cavernosa of a male guinea pig; assay: Phenylephrine-induced contracture in corpus cavernosa; assay type: cell-based; details: 200 μM; phenylephrine 30 μM
Protocol: It is noted that L788 concentration-dependent inhibition occurred for the contractile response of the corpus cavernosa.
This same Protocol Experiment was repeated for the other derivatives being tested and for the solvent separately (FIG. 11). It was noted that only L788 caused significant reaction, where the amplitude of the contracture at a concentration of 200 μM was 46.5±8.8% of the control. […] The effect of the solvent (DMSO) was tested at volumes corresponding to those used for the derivatives, and was unable to cause any significant alterations to the contractility of this tissue.

[6] = system: rat aorta rings with preserved endothelium; assay: KCl-induced contracture in aorta rings with preserved endothelium; assay type: cell-based; details: KCl 40 mM
Protocol: as §1, §5, §6
The effects of the L294 analogs were investigated in rat aorta rings with preserved endothelium whose contracture was induced by increasing the extra-cellular concentration of KCl to 40 mM. Of the seven L294 analogs, this test was carried out only with the L785, L786, L789 and L790, in this group of experiments.

[7] = system: rat aorta rings with no endothelium; assay: KCl-induced contracture in aorta rings without endothelium; assay type: cell-based; details: Rattus norvegicus; KCl 40 mM; without endothelium; six experiments; read-out: CI50 (μM) Average ± SEM
Protocol: as §1, §5
as §6, with “[…] […]” for “In order to investigate the vasodilator effect of the different L294 analogs, they were added to the experiment chambers in rising concentration after the contracture stabilization of the vessel induced by phenylephrine. The tension registered after treatment with each of the L294 analog concentrations was normalized as a function of the amplitude of the contracture triggered by phenylephrine.”

IC50 [2] [µM] | IC50 [3] [µM] | IC50 [7] [µM] | Compound | maximum alterations to the papillary muscle twitches (rat papillary muscle) | muscular response in ventricular bundles [1] | maximum inhibition levels of phenylephrine contracture, with endothelium [2] [%] | EDL twitch amplitude 200 μM (% of the control) [4] | EDL twitch amplitude 30 min-Washing (% of the control) [4] | SOL twitch amplitude 200 μM (% of the control) (soleus (SOL) muscle) | amplitude of the papillary muscle twitches (rat papillary muscle) | muscle twitches / contractility in ventricular bundles ([1]; 100 μM) | amplitude of the phenylephrine contracture in rings with whole endothelium ([2]; maximum effect) | amplitude of the phenylephrine-induced contracture of the corpus cavernosa [5] | SOL twitch amplitude 30 min-Washing (% of the control) (soleus (SOL) muscle) | amplitude of the KCl contracture, with endothelium ([6]; 200 μM stated for L790) | CI50 (μM) Average ± SEM ([6]; with endothelium, six experiments) | inhibition of the KCl contracture, with endothelium ([6]; up to 100 μM, result in words) | vasodilatory / relaxing effect on phenylephrine contracture, without endothelium [3]
293 ± 76 | 273 ± 22 |  | Cc1ccc(/C=N/NC(=O)c2ccc3c(c2)OCO3)s1 [L787, 1,3-Benzodioxol-5-carboxylic acid, [1-(5-methyl-thiophene-2-yl)-meth-(E)-ylidene]-hydrazide] | 115.0±5.0 % of the control | 105±6.9 % of the control | 37.1±7.0 | 37.8±3.5 % of the control | 38.6 ± 2.5 % of the control | 47.6±4.2 % of the control |  |  |  |  |  |  |  |  | 
67.9 ± 6.5 | 65.7 ± 8 |  | C=CCN(/N=C/c1cccs1)C(=O)c1ccc2c(c1)OCO2 [L788, 1,3-Benzodioxol-5-carboxylic acid, N′-[1-thiophene-2-yl-meth-(E)-ylidene]-N-allyl-hydrazide] |  |  |  | 47.6±5.4 % of the control | 26.8 ± 2.3 % of the control | 45.1±5.1 % of the control | 81.2±2.6 % of the control | 74.9±5.1 % of the control | 10.4±3.2 % of the control | 46.5±8.8 % of the control | 37.8 ± 4.7 % of the control |  |  |  | 
216 ± 39.3 |  | 123 ± 17.3 | O=C(N/N=C/c1ccc([N+](=O)[O-])s1)c1ccc2c(c1)OCO2 [L790, 1,3-Benzodioxol-5-carboxylic acid, [1-(5-nitro-thiophene-2-yl)-meth-(E)-ylidene]-hydrazide] | 87.8±5.6 % of the control | 92.3±1.6 % of the control | 47.0±5.9 | 52.2±3.4 % of the control and 52.2 ± 3.8 % of the control | 49.2 ± 5.1 % of the control | 71.3±5.2 % of the control |  |  |  |  | 70.8 ± 7.7 % of the control | 74.9±8.8 % of the control | cannot be determined | insignificant | absence of the relaxing effect; also recorded: lacked vasodilatory action; also recorded: did not cause a significant relaxing effect
173 ± 26.7 |  |  | O=C(NNCc1cccs1)c1ccc2c(c1)OCO2 [L791, 1,3-Benzodioxol-5-carboxylic acid, N′-thiophene-2-ylmethyl-hydrazide] | 92.4±2.5 % of the control | 89.4±4.5 % of the control | 59.2±7.8 | 45.8±6.9 % of the control and 45.9 ± 6.9 % of the control |  | 69.3±4.8 % of the control | did not significantly alter the contractile response |  |  |  | 74.4 ± 13.8 % of the control |  |  |  | did not result in any vasodilatory activity; also recorded: lacked vasodilatory action

From patent US20080275105A1, “Selective Muscle Relaxant and Pharmaceutical Compositions” (UNIVERSIDADE FEDERAL DO RIO DE JANEIROUFRJ, priority 2004, published 2008)
